Literature values as cited in patent publication US10016375B2, “Materials and methods for controlling infections” (priority 2013, dated 2018).
Each block holds one compound with its values, some of them ahead of it.

What was measured:
[1] = 4% chlorhexidine gluconate applied to the eyes
[2] = three consecutive cataract operations

SMILES: CC(=O)O.CC(=O)O.NC(=N\CCCCCC/N=C(N)/N=C(\N)Nc1ccc(Cl)cc1)/N=C(\N)Nc1ccc(Cl)cc1 [Chlorhexidine diacetate]
- Acute toxicity when applied to the eye: highly acutely toxic

SMILES: [H]/N=C(\N/C(=N/[H])NCCCCCCNC(=N)NC(=N)Nc1ccc(Cl)cc1)Nc1ccc(Cl)cc1 [Chlorhexidine gluconate]
- Corneal damage (bullous keratopathy, epithelial defects, corneal opacification) when applied to the eyes [1]: may produce corneal damage

- Effects in the retina or optic nerve after intraocular irrigation [2]: No effects were observed
SMILES: [H]/N=C(\N/C(=N/[H])NCCCCCCNC(=N)NC(=N)Nc1ccc(Cl)cc1)Nc1ccc(Cl)cc1 [chlorhexidine]
- Corneal endothelium damage after intraocular irrigation ([2]; two of the three patients): corneal endothelium damage was so severe that penetrating keratoplasty had to be performed
